The structures appear in SMILES notation. ≈ marks a conversion by molar mass, not a printed value.

As usually defined, the solubility is the dissolved amount per volume that the medium holds.

The series is described as follows: Solubility of celecoxib in aqueous media. It counts as physicochemical. The procedure: However, celecoxib presents certain challenges for formulation as a rapid-onset dosage form, particularly as a rapid-onset oral dosage form. For example, celecoxib has very low solubility in aqueous media (about 2 to about 5 μg/ml) and therefore is not readily dissolved and dispersed for rapid absorption in the gastrointestinal tract when administered orally, for example in tablet or capsule form. In addition, celecoxib has a relatively high dose requirement further increasing difficulties of providing a sufficient therapeutically effective dose for rapid absorption.

The compound `Cc1ccc(-c2cc(C(F)(F)F)nn2-c2ccc(S(N)(=O)=O)cc2)cc1` [celecoxib, 4-[5-(4-methylphenyl)-3-(trifluoromethyl)-1H-pyrazol-1-yl]benzenesulfonamide] yielded a solubility of 2 to 5 µg/mL (≈ 5.24 to 13.1 µM).
